Source: patent US20130131059A1, “METHOD FOR TREATING OPHTHALMIC DISEASES USING KINASE INHIBITOR COMPOUNDS IN PRODRUG FORMS” (INSPIRE PHARMACEUTICALS, INC., priority 2010, published 2013)
Where two headings read alike, the source gives them in different places.

Experiments:
[1] = target: T1, ROCK1 (Homo sapiens, UniProt Q13464); experiment: Rho kinase inhibition assay (IMAP fluorescence polarization), ROCK1; assay type: biochemical
T1 construct: purchased Upstate/Chemicon 14-601
Protocol: (§1) Following the pre-incubation, 10 μM ATP was added to initiate the reaction. After 60 minutes at room temperature, Molecular Devices IMAP™ binding solution was added to bind phosphorylated substrate. After 30 minutes of incubation in the presence of the IMAP™ beads, the fluorescence polarization was read and the ratio was reported as mP.

[2] = target: T2, ROCK2 (Homo sapiens, UniProt O75116); experiment: Rho kinase inhibition assay (IMAP fluorescence polarization), ROCK2; assay type: biochemical; conditions: 10 μM ATP, 60 min at room temperature
T2 construct: purchased Upstate/Chemicon 14-451
Protocol: as §1, with “(Molecular Devices product number R7184) was pre-incubated with a test compound for 5 minutes in buffer containing 10 mM Tris-HCl pH 7.2, 10 mM MgCl2, and 0.1% BSA. Following” for “Following”
See Tian et al., Arch. Ophthalmol. […] Ophthalmol. Vis. […] Ophthalmol. […] Cytoskel. […] Ophthalmol. Vis. […] Ophthalmol. Vis.

[3] = Ocular surface and aqueous humor bioavailability; assay type: in vivo, New Zealand White rabbits; conditions: New Zealand White, rabbit, topical, 30 μl of 1 mM (0.04% w/v) per eye
Protocol: Dose Formulation and Administration. Compounds 14 (prodrug) and 49 (base compound) were formulated at 0.04% w/v (the equivalent millimolar concentration is 1 mM) in 10 mM phosphate, 0.8% polysorbate 80, 0.85% NaCl, 0.01% BAC, 0.1% EDTA at pH 7.3. Each compound was administered as a 30 μl drop to both eyes of each animal within a dosing group and the ocular and systemic exposure was examined as described in Example 49.
Study sampling. 40 μL of saline was applied to the eyes at 0.083, 1, 2, and 4 hours after administration of each compound and the lavage fluids were collected as samples. Aqueous humor and ocular surface samples were obtained from 2 animals (4 eyes) per dosing group at 0.083, 1, 2, and 4 hours post dosing, by the methods described in Example 49. Ocular surface relates to the surface of the cornea and conjunctiva. Ocular surface residence time is the average time that a compound resides on the ocular surface.

[4] = 10 μM ATP, 60 min at room temperature, read-out: ROCK1 IC50
[5] = ocular surface (saline lavage fluid)

T1 sequence (Q13464 whole entry): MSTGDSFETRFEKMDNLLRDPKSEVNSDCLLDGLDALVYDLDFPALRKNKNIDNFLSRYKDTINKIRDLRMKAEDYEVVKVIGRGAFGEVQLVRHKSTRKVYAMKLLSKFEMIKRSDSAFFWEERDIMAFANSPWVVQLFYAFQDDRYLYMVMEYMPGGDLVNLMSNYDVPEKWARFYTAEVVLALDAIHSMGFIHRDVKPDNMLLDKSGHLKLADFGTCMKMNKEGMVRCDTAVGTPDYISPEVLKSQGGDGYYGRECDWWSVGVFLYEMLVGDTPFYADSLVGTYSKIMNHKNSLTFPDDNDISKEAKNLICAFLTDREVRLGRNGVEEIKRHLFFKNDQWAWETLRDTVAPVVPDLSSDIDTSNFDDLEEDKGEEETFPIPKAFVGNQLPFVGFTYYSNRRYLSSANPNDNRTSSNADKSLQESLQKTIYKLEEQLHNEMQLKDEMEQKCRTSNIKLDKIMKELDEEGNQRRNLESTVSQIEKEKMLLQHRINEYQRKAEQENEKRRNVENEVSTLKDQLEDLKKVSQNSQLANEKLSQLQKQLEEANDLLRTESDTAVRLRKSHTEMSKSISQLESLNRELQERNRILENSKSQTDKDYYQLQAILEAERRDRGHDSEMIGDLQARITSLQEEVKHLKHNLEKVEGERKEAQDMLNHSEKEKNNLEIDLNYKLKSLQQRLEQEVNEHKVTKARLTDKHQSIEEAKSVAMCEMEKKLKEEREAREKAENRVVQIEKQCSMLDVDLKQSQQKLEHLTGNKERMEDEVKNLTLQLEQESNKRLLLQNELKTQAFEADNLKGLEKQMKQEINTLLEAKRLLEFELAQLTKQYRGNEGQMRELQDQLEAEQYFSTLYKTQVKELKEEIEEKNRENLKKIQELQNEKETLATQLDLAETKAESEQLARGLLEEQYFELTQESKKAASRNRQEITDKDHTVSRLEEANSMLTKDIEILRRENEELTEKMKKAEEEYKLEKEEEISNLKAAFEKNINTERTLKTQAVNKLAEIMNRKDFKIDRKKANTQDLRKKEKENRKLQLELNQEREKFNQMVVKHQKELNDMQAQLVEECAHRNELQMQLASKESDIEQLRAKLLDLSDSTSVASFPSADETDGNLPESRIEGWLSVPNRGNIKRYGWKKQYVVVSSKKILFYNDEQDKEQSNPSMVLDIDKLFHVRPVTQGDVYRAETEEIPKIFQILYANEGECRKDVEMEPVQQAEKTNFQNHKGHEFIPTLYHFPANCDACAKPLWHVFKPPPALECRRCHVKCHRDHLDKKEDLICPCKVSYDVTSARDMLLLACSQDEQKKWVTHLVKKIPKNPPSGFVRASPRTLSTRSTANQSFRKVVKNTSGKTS
T2 sequence (O75116 whole entry): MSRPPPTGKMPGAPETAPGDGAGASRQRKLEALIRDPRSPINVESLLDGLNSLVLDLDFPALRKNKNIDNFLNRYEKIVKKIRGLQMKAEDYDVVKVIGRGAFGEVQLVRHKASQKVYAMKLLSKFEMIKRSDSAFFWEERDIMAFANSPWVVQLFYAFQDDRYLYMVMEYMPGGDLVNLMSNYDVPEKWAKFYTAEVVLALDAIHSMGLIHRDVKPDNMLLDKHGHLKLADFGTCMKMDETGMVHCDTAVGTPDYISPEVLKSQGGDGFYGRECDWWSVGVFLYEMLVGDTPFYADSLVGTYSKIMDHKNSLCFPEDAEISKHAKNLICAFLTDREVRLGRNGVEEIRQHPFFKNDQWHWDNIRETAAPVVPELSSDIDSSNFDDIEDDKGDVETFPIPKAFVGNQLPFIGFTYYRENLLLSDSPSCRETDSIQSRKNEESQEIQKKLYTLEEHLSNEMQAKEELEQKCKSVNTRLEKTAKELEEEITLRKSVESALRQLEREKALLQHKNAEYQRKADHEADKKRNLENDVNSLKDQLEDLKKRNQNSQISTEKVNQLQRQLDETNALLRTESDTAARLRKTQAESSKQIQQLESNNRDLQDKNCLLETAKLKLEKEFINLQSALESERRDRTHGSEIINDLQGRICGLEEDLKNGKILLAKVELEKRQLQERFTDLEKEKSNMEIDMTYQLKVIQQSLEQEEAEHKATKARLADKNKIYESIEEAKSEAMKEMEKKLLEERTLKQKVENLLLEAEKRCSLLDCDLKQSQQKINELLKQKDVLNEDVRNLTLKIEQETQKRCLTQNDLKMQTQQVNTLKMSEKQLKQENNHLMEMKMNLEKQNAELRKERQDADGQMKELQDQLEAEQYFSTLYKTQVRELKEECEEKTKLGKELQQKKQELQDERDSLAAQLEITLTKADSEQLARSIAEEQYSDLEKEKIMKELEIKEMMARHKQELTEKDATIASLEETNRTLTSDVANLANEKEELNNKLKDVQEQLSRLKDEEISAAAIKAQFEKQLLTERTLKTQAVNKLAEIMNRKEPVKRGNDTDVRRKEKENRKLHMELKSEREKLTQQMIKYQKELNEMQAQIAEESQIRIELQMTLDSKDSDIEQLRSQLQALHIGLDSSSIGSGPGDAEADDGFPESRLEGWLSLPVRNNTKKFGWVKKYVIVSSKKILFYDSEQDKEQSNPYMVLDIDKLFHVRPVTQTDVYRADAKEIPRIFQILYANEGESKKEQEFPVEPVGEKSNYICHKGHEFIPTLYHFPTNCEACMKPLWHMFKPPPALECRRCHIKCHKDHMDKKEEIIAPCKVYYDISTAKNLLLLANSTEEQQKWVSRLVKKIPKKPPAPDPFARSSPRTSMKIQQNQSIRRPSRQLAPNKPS

Compound	IC50 [1, 4]	IC50 [2]	IC50 [1]	also measured
CC(C)CC(=O)OCCOc1cccc(CN2CC[C@@H](Nc3cccc4cnccc34)C2)c1 [Compound 18, 2-(3-((((R)-3-(isoquinolin-5-ylamino)pyrrolidin-1-yl)methyl)phenoxy)ethyl 3-methylbutanoate)]	3820 nM	1490 nM		
CC1(C(=O)OCCOc2cccc(CN3CC[C@@H](Nc4cccc5cnccc45)C3)c2)CC1 [Compound 19, 2-(3-(((R)-3-(isoquinolin-5-ylamino)pyrrolidin-1-yl)methyl)phenoxy)ethyl 1-methylcyclopropanecarboxylate]	3060 nM	1050 nM		
CC(C)(C)C(=O)OCCOc1cccc(CN2CC[C@@H](Nc3cccc4cnccc34)C2)c1 [Compound 20, 2-(3-(((R)-3-(isoquinolin-5-ylamino)pyrrolidin-1-yl)methyl)phenoxy)ethyl pivalate]	4810 nM	1770 nM		
O=C(OCCOc1cccc(CN2CC[C@@H](Nc3cccc4cnccc34)C2)c1)c1cccnc1 [Compound 21, 2-(3-(((R)-3-(isoquinolin-5-ylamino)pyrrolidin-1-yl)methyl)phenoxy)ethyl nicotinate]	1910 nM	512 nM		
CC(=O)Nc1ccc(CN2CCC(Nc3cccc4cnccc34)C2)cc1 (stereo not drawn) [Compound 25, N-(4-((3-(isoquinolin-5-ylamino)pyrrolidin-1-yl)methyl)phenyl)acetamide]		2300 nM		
Cc1ccc(CN2CCC[C@@H](Nc3ccc4[nH]ncc4c3)C2)cc1OCCOC(=O)c1ccccc1 [Compound 26, 2-(5-(((R)-3-(1H-indazol-5-ylamino)piperidin-1-yl)methyl)-2-methylphenoxy)ethyl benzoate]	6060 nM	621 nM		
CC(=O)NCCOc1cccc(CN2CCC[C@@H](Nc3ccc4[nH]ncc4c3)C2)c1 [Compound 29, N-(2-(3-(((R)-3-(1H-indazol-5-ylamino)piperidin-1-yl)methyl)phenoxy)ethyl) acetamide]		987 nM	5160 nM	
O=C(OCCOc1cccc(CN2CCC[C@H](Nc3ccc4[nH]ncc4c3)C2)c1)c1ccccc1 [Compound 31, 2-(3-(((S)-3-(1H-indazol-5-ylamino)piperidin-1-yl)methyl)phenoxy)ethyl benzoate]		1230 nM	5650 nM	
O=C(OCCOc1cccc(CN2CCC[C@@H](Nc3ccc4[nH]ncc4c3)C2)c1)c1ccccc1 [Compound 32, 2-(3-((R)-3-(1H-indazol-5-ylamino)piperidin-1-yl)methyl)phenoxy)ethyl benzoate]		3020 nM	7080 nM	
CCOC(=O)c1ccc(CN2CCC[C@@H](Nc3ccc4[nH]ncc4c3)C2)cc1 [Compound 44, Ethyl 4-(((R)-3-(1H-indazol-5-ylamino)piperidin-1-yl)methyl)benzoate]		6190 nM	117000 nM	
CCOC(=O)c1ccc(CN2CCC[C@H](Nc3ccc4[nH]ncc4c3)C2)cc1 [Compound 45, Ethyl 4-(((S)-3-(1H-indazol-5-ylamino)piperidin-1-yl)methyl)benzoate]		6180 nM	45500 nM	
Cc1ccc(CN2CC[C@@H](Nc3cccc4cnccc34)C2)cc1OCCO [Compound 49, [2-(5-(((R)-3-(isoquinolin-5-ylamino)pyrrolidin-1-yl)methyl)-2-methylphenoxy)]ethanol]			4.1 nM	concentration at 1 h ([3]; aqueous humor): 93.9 nM; concentration at 2 h ([3]; aqueous humor): 24 nM; concentration at 4 h ([3]; aqueous humor): 3.4 nM; concentration at 1 h [3, 5]: 846 nM; concentration at 2 h [3, 5]: 893 nM; concentration at 4 h [3, 5]: 65.7 nM
tent-Butyl (3-((3-(1H-indazol-5-ylamino)piperidin-1-yl)methyl)phenyl)methyl carbamate [Compound 40]		6590 nM		
tert-Butyl (4-(((S)-3-(1H-indazol-5-ylamino)piperidin-1-yl)methyl)phenyl) methylcarbamate [Compound 43]	25400 nM	4000 nM		

Continued, in another order:

IC50 [1, 4]	IC50 [2]	IC50 [1]	Compound	also measured
1220 nM	369 nM		CCOC(=O)OCCOc1cccc(CN2CC[C@@H](Nc3cccc4cnccc34)C2)c1 [Compound 17, 2-(3-(((R)-3-(isoquinolin-5-ylamino)pyrrolidin-1-yl)methyl)phenoxy)ethyl ethyl carbonate]	
	251 nM	3440 nM	CC(C)(C)OC(=O)COc1cccc(CN2CCC[C@H](Nc3ccc4[nH]ncc4c3)C2)c1 [Compound 27, tert-Butyl 2-(3-(((S)-3-(1H-indazol-5-ylamino)piperidin-1-yl)methyl)phenoxy) acetate]	
	109 nM	1030 nM	CCOC(=O)COc1cccc(CN2CCC[C@H](Nc3ccc4[nH]ncc4c3)C2)c1 [Compound 28]	
	451 nM	5390 nM	CC(=O)NCCOc1cccc(CN2CCC[C@H](Nc3ccc4[nH]ncc4c3)C2)c1 [Compound 30, N-(2-(3-(((S)-3-(1H-indazol-5-ylamino)piperidin-1-yl)methyl)phenoxy)ethyl) acetamide]	
	155 nM	1010 nM	O=C(COc1cccc(CN2CCC[C@@H](Nc3ccc4[nH]ncc4c3)C2)c1)Nc1cccnc1 [Compound 33, 2-(3-(((R)-3-(1H-indazol-5-ylamino)piperidin-1-yl)methyl)phenoxy)-N-(pyridin-3-yl)acetamide]	
	102 nM	1280 nM	O=C(COc1cccc(CN2CCC[C@@H](Nc3ccc4[nH]ncc4c3)C2)c1)N1CCOCC1 [Compound 34, 2-(3-(((R)-3-(1H-indazol-5-ylamino)piperidin-1-yl)methyl)phenoxy)-1-morpholinoethanone]	
	87 nM		CCOC(=O)COc1cccc(CN2CCCC(Nc3ccc4[nH]ncc4c3)C2)c1 (stereo not drawn) [Compound 41, Ethyl 2-(3-((3-(1H-indazol-5-ylamino)piperidin-1-yl)methyl)phenoxy)acetate]	
	341 nM	2420 nM	CC(=O)NCc1cccc(CN2CCC[C@@H](Nc3ccc4[nH]ncc4c3)C2)c1 [Compound 42, N-((3-(((R)-3-(1H-indazol-5-ylamino)piperidin-1-yl)methyl)phenyl)methyl) acetamide]	
	6.7 nM	19 nM	OCCOc1cccc(CN2CC[C@@H](Nc3cccc4cnccc34)C2)c1 [Compound 48, 2-(3-(((R)-3-(isoquinolin-5-ylamino)pyrrolidin-1-yl)methyl)phenoxy)ethanol]	
